Patent US8460635B2, “Fenretinide derivatives and uses thereof as therapeutic, diagnostic and imaging agents” (Albert Einstein College of Medicine of Yeshiva University, priority 2008, dated 2013)
pIC50: −log10 of the molar value. Where two headings read alike, the source gives them in different places.

What was measured:
[1] = system: MON (INI1−/−) rhabdoid tumor cells; assay: MTS survival assay of rhabdoid tumor cells; type: cell-based
Description: FIG. 1A-1D. Effect of 4HPR derivatives with phenyl group substitutions on survival of rhabdoid tumors cells. MON (INI1−/−) cells were treated with serial dilutions of the 4HPR, ATRA and 4HPR derivatives for three days. Survival assay was carried out as described using MTS assay kit. Percentage of cell survival plotted against concentration of drugs (Mean+/−SEM).
FIG. 2. Effect of fenretinide peptidomimitic derivatives on the survival of rhabdoid tumor cells in culture. % survival of MON rhabdoid tumor cells treated with fenretinide derivatives, when compared to the vehicle treated control. The data in all the panels represent the average of triplicate experiments, and the standard error is indicated.
(§1) The rhabdoid cell line (MON) (88) was cultured in RPMI 1640 supplemented with 10% fetal bovine serum, 2 mM L-glutamine, 50 U/ml penicillin, and 50 μg/ml streptomycin at 37° C. with 5% CO2 and 95% humidified air. 4-(Fenretinide) was either obtained from NCI or synthesized in house. Fenretinide or its synthetic derivatives were reconstituted in 100% ethanol as a 10 mM solution and the aliquots were stored frozen at −80° C., protected from light. Working solutions (50 μM or 200 μM) and serial dilutions were prepared by diluting the stock solution with culture medium, such that the concentration of ethanol was <2% in all dilutions.
Aliquots of 8×10^3 MON cells were plated in 96-well microdilution plates. Twenty four hours after seeding, the cells were treated with serial dilutions of each drug. Following incubation for 24 or more hours, each well was stained with 20 μl of MTS [3-(4,5-dimethylthiazol-2-yl)-5-(3-carboxymethoxyphenyl)-2-(4-sulfophenyl)-2H-tetrazolium, inner salt] that was mixed 20:1 V/V in PMS (phenazine methosulphate, CellTiter 96® AQueous Non-Radioactive Cell Proliferation Assay Kit, Promega, Madison, Wis.) added to each of the well in the microtiter plate containing 100 μl of culture medium. After 4 h incubation, the plates were analyzed by an ELISA plate reader (Wallac Victor, 1420 Multilabel Counter, Perkin Elmer) at 490 nm wave-length. Cell plating, drug treatment and survival assay were performed using the epMotion 5070 automated liquid handling robotic system (Eppendorff, Westbury, N.Y.).
Statistical analysis of the data was carried out using GraphPad Prism (San Diego, Calif.). Relative IC50 values were calculated using the nonlinear regression curve fit with sigmoidal dose response (variable slope) function. Relative IC50 is defined as the concentration giving a response exactly half way between the fitted top and bottom of the survival curve when graphed as percent inhibition versus the log of the concentration of compound. The fitting error, or standard error describes the error involved in fitting the curve.

[2] = Precipitation / solubility in cell culture medium; type: physicochemical
Description: as §1

[3] = system: MON (INI1−/−) rhabdoid tumor cells; assay: MTS survival assay of rhabdoid tumor cells; type: cell-based; details: charcoal adsorbed serum
Cyclin D1 = assay: Immunoblot analysis of Cyclin D1 expression; type: cell-based; details: biomarker expression, Table 3
Description: FIG. 5A-5B. Effect of fenretinide, its derivatives and peptidomimetic compounds on expression of Cyclin D1. Immunoblot analysis to determine the effect of fenretinide and its halogen substitutes (A) and peptidomimetic compounds (B). GAPDH is a loading control.
This assay was performed using a routine laboratory protocol as previously described using chemiluminescence detection method (30). The following antibodies were used: polyclonal α-cyclin D1 Ab-3 (NeoMarkers, Cat# RB-010-P0), monoclonal α-cyclin D1 DCS-6 (NeoMarkers, Cat# MS-210-P1), α-β-Actin (Sigma Cat# A5441) and α-Tubulin-α (Sigma, Cat # T5168).
(§2) The effects of fenretinide, halogen substitutes, and peptidomimetic derivatives on cell cycle regulation and apoptosis were tested by using: i) cell survival assay (MTS); ii) FACS analysis; and iii) immunoblot analysis to determine the effect on Cyclin D1.

MON cells = assay: FACS analysis of cell cycle and sub-G1 (apoptosis); type: cell-based; details: 2 days
Description: (§3) FIG. 3A-3B. Induction of cell cycle arrest and apoptosis by halogen derivatives of fenretinide. A. Cell cycle profile determined by FACS analysis of MON cells treated with either 5 or 10 μM concentrations of fenretinide and its derivatives for 2 days. Percentage of cells at various stages of cell cycle (G1, S and G2) is indicated. B. Percentage of MON cells at sub-G1 when exposed for 2 days to fenretinide and its derivatives.
as §3, with “4A-4B.” for “3A-3B.”, “peptidomimetic” for “halogen”
as §2

tumor cell = details: in vitro, literature (ref 1); read-out: IC50s, suppression of tumor cell growth in vitro; cited from earlier work
[4] = 200 mg/day (MTD), breast cancer patients, literature (ref 3); cited from earlier work
[5] = MON cells, nonlinear regression, sigmoidal dose response, read-out: Relative IC50
[6] = MON rhabdoid cells, survival assay, values in text, read-out: IC50
[7] = regular FBS, read-out: IC50 (in regular FBS)

CCC1=C(C)/C(=C/c2ccc(C(=O)Nc3ccc(O)c(I)c3)cc2)CCC1(C)C [Compound 11d, (E)-4-((3-ethyl-2,4,4-trimethylcyclohex-2-enylidene)methyl)-N-(4-hydroxy-3-iodophenyl)benzamide]
pIC50 [1, 5]: 5.50 | pIC50 [1, 6]: 5.52 | cytotoxic activity against rhabdoid tumor cells (in words) ([1]; compared with 4-HPR): more active when compared to parent Fenretinide | behaviour in cell culture medium (precipitation / insolubility) [2]: did not show any precipitation

CC1=C(/C=C/C(C)=C/C=C/C(C)=C/C(=O)Nc2ccc(I)cc2)C(C)(C)CCC1 [5(d), (2E,4E,6E,8E)-[3,7-Dimethyl-9-(2,6,6-trimethyl-1-cyclohexenyl)-nona-2,4,6,8-tetraenoylamino]-(4-iodo)phenylamide]
pIC50 [1, 7]: < 4.30 | pIC50 [3]: < 4.82 | behaviour in cell culture medium (precipitation / insolubility) [2]: precipitated in cell culture medium

CC1=C(/C=C/C(C)=C/C=C/C(C)=C/C(=O)Nc2ccc(O)cc2)C(C)(C)CCC1 [Compound 4-HPR, N-(4-hydroxyphenyl)retinamide, reference compound]
Repression of Cyclin D1 (Cyclin D1): Yes | pIC50 [1, 5]: 4.83 | pIC50 ([1]; MON cells, three days, compounds in FIG. 1A-1D, concentration of drug required to kill 50% of cells, read-out: IC50): 4.72 | pIC50 [1, 6]: ~4.82 | pIC50 [1, 7]: 4.72 to 4.92 | % G1 (MON cells; 5 μM, Table 5): 86.32% | % G2 (MON cells; 5 μM, Table 5): 6.73% | % S (MON cells; 5 μM, Table 5): 6.95% | SubG1 (percentage of MON cells at sub-G1) (MON cells; 5 μM, Table 5): 37.12% | % G1 (MON cells; 5 μM, Table 6): 86.32% | % G2 (MON cells; 5 μM, Table 6): 6.49% | % S (MON cells; 5 μM, Table 6): 6.95% | SubG1 (percentage of MON cells at sub-G1) (MON cells; 5 μM, Table 6): 37.12% | % G1 (MON cells; 10 μM, Table 5): 85.41% | % G2 (MON cells; 10 μM, Table 5): 6.66% | % S (MON cells; 10 μM, Table 5): 7.93% | SubG1 (percentage of MON cells at sub-G1) (MON cells; 10 μM, Table 5): 73.98% | % G1 (MON cells; 10 μM, Table 6): 85.41% | % G2 (MON cells; 10 μM, Table 6): 7.60% | % S (MON cells; 10 μM, Table 6): 8.02% | SubG1 (percentage of MON cells at sub-G1) (MON cells; 10 μM, Table 6): 73.98% | pIC50 (tumor cell): 5.00 to 6.00 | plasma concentration [4]: 1000 nM | pIC50 [3]: 5.70
